Experimental data reported in the NIST ThermoML archive (doi:10.1016/j.jct.2014.12.022).
Numbers after ± are expanded uncertainties.

Assay: molar heat capacity at constant pressure; xn = mol fraction of the nth substance listed
Conditions: 100 kPa, Liquid, Small sample (50 mg) DSC

CN1CCCC1=O [N-methylpyrrolidone] + c1ccccc1
molar heat capacity at constant pressure [J/K/mol]
Conditions	293.15 K	298.15 K	303.15 K
x1 = 0.0787	137.73 ± 2.8	139.51 ± 2.8	140.9 ± 2.8
x1 = 0.1156	139.63 ± 2.8	141.42 ± 2.8	142.83 ± 2.9
x1 = 0.168	142.27 ± 2.9	144.04 ± 2.9	145.46 ± 2.9
x1 = 0.1983	143.75 ± 2.9	145.51 ± 2.9	146.92 ± 2.9
x1 = 0.2249	145.03 ± 2.9	146.77 ± 2.9	148.18 ± 3
x1 = 0.2634	146.83 ± 2.9	148.55 ± 3	149.94 ± 3
x1 = 0.3065	148.78 ± 3	150.46 ± 3	151.83 ± 3
x1 = 0.3325	149.91 ± 3	151.58 ± 3	152.93 ± 3.1
x1 = 0.3617	151.15 ± 3	152.8 ± 3.1	154.13 ± 3.1
x1 = 0.4106	153.13 ± 3.1	154.74 ± 3.1	156.04 ± 3.1
x1 = 0.4367	154.13 ± 3.1	155.73 ± 3.1	157.02 ± 3.1
x1 = 0.4635	155.13 ± 3.1	156.71 ± 3.1	157.98 ± 3.2
x1 = 0.5008	156.45 ± 3.1	158.01 ± 3.2	159.26 ± 3.2
x1 = 0.5598	158.37 ± 3.2	159.91 ± 3.2	161.13 ± 3.2
x1 = 0.5952	159.42 ± 3.2	160.95 ± 3.2	162.15 ± 3.2
x1 = 0.6245	160.24 ± 3.2	161.75 ± 3.2	162.94 ± 3.3
x1 = 0.6616	161.18 ± 3.2	162.69 ± 3.2	163.85 ± 3.3
x1 = 0.7099	162.28 ± 3.2	163.76 ± 3.3	164.9 ± 3.3
x1 = 0.7494	163.06 ± 3.3	164.51 ± 3.3	165.62 ± 3.3
x1 = 0.7748	163.51 ± 3.3	164.93 ± 3.3	166.02 ± 3.3
x1 = 0.8011	163.92 ± 3.3	165.31 ± 3.3	166.38 ± 3.3
x1 = 0.8319	164.35 ± 3.3	165.68 ± 3.3	166.72 ± 3.3
x1 = 0.8767	164.84 ± 3.3	166.08 ± 3.3	167.06 ± 3.3
x1 = 0.9152	165.15 ± 3.3	166.28 ± 3.3	167.2 ± 3.3

Cc1ccc(Cl)cc1 [4-chlorotoluene] + c1ccccc1
molar heat capacity at constant pressure [J/K/mol]
Conditions	293.15 K	298.15 K	303.15 K
x2 = 0.0912	170.37 ± 3.4	172.42 ± 3.5	174.55 ± 3.5
x2 = 0.1226	168.6 ± 3.4	170.58 ± 3.4	172.63 ± 3.5
x2 = 0.1657	166.22 ± 3.3	168.12 ± 3.4	170.06 ± 3.4
x2 = 0.2012	164.3 ± 3.3	166.15 ± 3.3	168.01 ± 3.4
x2 = 0.2374	162.4 ± 3.2	164.19 ± 3.3	165.99 ± 3.3
x2 = 0.2675	160.86 ± 3.2	162.61 ± 3.2	164.35 ± 3.3
x2 = 0.3135	158.57 ± 3.2	160.26 ± 3.2	161.93 ± 3.2
x2 = 0.3456	157.02 ± 3.1	158.69 ± 3.2	160.3 ± 3.2
x2 = 0.3702	155.87 ± 3.1	157.51 ± 3.1	159.08 ± 3.2
x2 = 0.4231	153.47 ± 3.1	155.06 ± 3.1	156.56 ± 3.1
x2 = 0.4657	151.63 ± 3	153.19 ± 3.1	154.63 ± 3.1
x2 = 0.5093	149.83 ± 3	151.35 ± 3	152.74 ± 3
x2 = 0.5346	148.82 ± 3	150.33 ± 3	151.68 ± 3
x2 = 0.5723	147.36 ± 3	148.85 ± 3	150.16 ± 3
x2 = 0.6022	146.25 ± 2.9	147.72 ± 3	148.99 ± 3
x2 = 0.6357	145.04 ± 2.9	146.49 ± 2.9	147.73 ± 3
x2 = 0.6701	143.84 ± 2.9	145.27 ± 2.9	146.49 ± 2.9
x2 = 0.6989	142.86 ± 2.9	144.29 ± 2.9	145.48 ± 2.9
x2 = 0.7224	142.08 ± 2.8	143.51 ± 2.9	144.68 ± 2.9
x2 = 0.7564	140.98 ± 2.8	142.41 ± 2.9	143.56 ± 2.9
x2 = 0.8096	139.31 ± 2.8	140.75 ± 2.8	141.89 ± 2.8
x2 = 0.8213	138.95 ± 2.8	140.4 ± 2.8	141.54 ± 2.8
x2 = 0.8543	137.95 ± 2.8	139.41 ± 2.8	140.56 ± 2.8
x2 = 0.8886	136.92 ± 2.7	138.42 ± 2.8	139.57 ± 2.8

Cc1cccc(Cl)c1 [3-chlorotoluene] + c1ccccc1
molar heat capacity at constant pressure [J/K/mol]
Conditions	293.15 K	298.15 K	303.15 K
x2 = 0.1056	169.49 ± 3.4	170.68 ± 3.4	171.79 ± 3.4
x2 = 0.1477	167.26 ± 3.4	168.43 ± 3.4	169.51 ± 3.4
x2 = 0.1746	165.85 ± 3.3	167.02 ± 3.3	168.08 ± 3.4
x2 = 0.2065	164.21 ± 3.3	165.37 ± 3.3	166.4 ± 3.3
x2 = 0.2347	162.78 ± 3.3	163.93 ± 3.3	164.95 ± 3.3
x2 = 0.2856	160.26 ± 3.2	161.4 ± 3.2	162.4 ± 3.2
x2 = 0.3148	158.85 ± 3.2	160 ± 3.2	160.98 ± 3.2
x2 = 0.3452	157.42 ± 3.1	158.56 ± 3.2	159.53 ± 3.2
x2 = 0.3899	155.37 ± 3.1	156.52 ± 3.1	157.48 ± 3.1
x2 = 0.4132	154.33 ± 3.1	155.48 ± 3.1	156.44 ± 3.1
x2 = 0.4499	152.73 ± 3	153.89 ± 3.1	154.85 ± 3.1
x2 = 0.4967	150.76 ± 3	151.94 ± 3	152.9 ± 3.1
x2 = 0.5231	149.69 ± 3	150.88 ± 3	151.84 ± 3
x2 = 0.5505	148.6 ± 3	149.81 ± 3	150.77 ± 3
x2 = 0.5836	147.32 ± 3	148.55 ± 3	149.52 ± 3
x2 = 0.6335	145.46 ± 2.9	146.73 ± 2.9	147.72 ± 3
x2 = 0.6625	144.42 ± 2.9	145.71 ± 2.9	146.71 ± 2.9
x2 = 0.6988	143.15 ± 2.9	144.47 ± 2.9	145.5 ± 2.9
x2 = 0.7207	142.41 ± 2.9	143.74 ± 2.9	144.78 ± 2.9
x2 = 0.7756	140.58 ± 2.8	141.98 ± 2.8	143.06 ± 2.9
x2 = 0.8045	139.65 ± 2.8	141.08 ± 2.8	142.18 ± 2.8
x2 = 0.8466	138.32 ± 2.8	139.8 ± 2.8	140.94 ± 2.8
x2 = 0.8845	137.14 ± 2.7	138.67 ± 2.8	139.84 ± 2.8
x2 = 0.9197	136.05 ± 2.7	137.63 ± 2.8	138.84 ± 2.8
